pIC50: −log10 of the molar value. Read-outs that look alike come from different tables or passages of the source.
System: panel of 140 standard cancer cell lines
Experiment: ProliFiler-140 cancer cell line screen (CellTiterGlo, 72 h)
Type: cell-based
Settings: for IC50: read-out: IC50 [M] (ProliFiler-140)
Description: Incubations were performed for 72 h before automated viability readout with CellTiterGlo (Figure 8).
End of Figure S11 (part 5 of 5): ProliFiler-140 cancer cell line screening for cytotoxicity of the prodrugs.
8-data-point dose response curves from CellTiter-Glo® viability readout.
ProliFiler-140 cell line panel part V

COc1cc2cc(C(=O)N3C[C@@H](CCl)c4c3cc(OC(=O)N3CCN(C(=O)CCC(=O)N5CCN(C)CC5)[C@H]5CSSC[C@H]53)c3ccccc43)[nH]c2c(OC)c1OC [P-SS66C-CBI-TMI]
IC50 (BxPC-3 (Pancreas)): 4.6e-08 M
IC50 (COR-L279 (Lung)): 7.23e-09 M
IC50 (COV434 (Ovary)): 1.48e-08 M
IC50 (Calu-6 (Lung)): 5.9e-08 M
IC50 (Colo 205 (Colon)): 8.61e-08 M
IC50 (DU-145 (Prostate)): 1.62e-08 M
IC50 (EFM-19 (Breast)): 3.12e-07 M
IC50 (EFO-27 (Ovary)): 6.19e-08 M
IC50 (EPLC-272H (Lung)): 4.6e-08 M
IC50 (H460 (Lung)): 5.51e-09 M
IC50 (H1299 (Lung)): 5.4e-08 M
IC50 (H2228 (Lung)): 4.5e-08 M
IC50 (HCC202 (Breast)): 9.13e-08 M
IC50 (HCC827 (Lung)): 9.11e-08 M
IC50 (HEC-1-B (Endometrium)): 3.99e-07 M
IC50 (HL-60 (Blood)): 1.52e-08 M
IC50 (HT-29 (Colon)): 1.05e-07 M
IC50 (HT-1080 (Fibrosarcoma)): 2.1e-08 M
IC50 (HeLa (Ovary)): 9.9e-09 M
IC50 (Hep3B2.1-7 (Liver)): 1.72e-07 M
IC50 (Hs 746T (Stomach)): 7.52e-08 M
IC50 (Hutu 80 (Duodenum)): 9.6e-09 M
IC50 (Ishikawa (Endometrium)): 3.84e-09 M
IC50 (J82 (Bladder)): 9.6e-08 M
IC50 (JIMT-1 (Breast)): 1.04e-07 M
IC50 (JVM-3 (Blood)): 3.4e-09 M
IC50 (Jurkat (Blood)): 6.2e-09 M
IC50 (K562 (Blood)): 1.29e-07 M
IC50 (KG-1 (Blood)): 1.9e-07 M
IC50 (LOU-NH91 (Lung)): 3.45e-08 M
IC50 (LP-1 (Blood)): 1.04e-07 M
IC50 (LnCap (Prostate)): 2.75e-08 M
IC50 (MCF-7 (Breast)): 3.05e-08 M
IC50 (MDA-MB-468 (Breast)): 1.87e-08 M
IC50 (MEC-1 (Blood)): 1.08e-08 M
IC50 (MKN-1 (Stomach)): 1.38e-07 M
IC50 (MOLM-13 (Blood)): 5.25e-09 M
IC50 (MOLT-4 (Blood)): 8.62e-09 M
IC50 (MV4-11 (Blood)): 1.54e-09 M
IC50 (NALM-6 (Blood)): 2.5e-09 M
IC50 (NCI-H82 (Lung)): 8.78e-08 M
IC50 (NCI-H292 (Lung)): 3.77e-08 M
IC50 (NCI-H838 (Lung)): 7.44e-08 M
IC50 (NCI-H1048 (Lung)): 3.97e-09 M
IC50 (NCI-H1563 (Lung)): 1.14e-07 M
IC50 (NCI-H1573 (Lung)): 8.97e-08 M
IC50 (NCI-H1581 (Lung)): 4.7e-08 M
IC50 (NCI-H1703 (Lung)): 5.11e-08 M
IC50 (NCI-H2110 (Lung)): 1.81e-08 M
IC50 (NCI-H2286 (Lung)): 1.67e-08 M
IC50 (NCI-N87 (Stomach)): 7.55e-08 M
IC50 (OCI-AML3 (Blood)): 1.32e-08 M
IC50 (OCI-AML5 (Blood)): 5.98e-09 M
IC50 (OCI-LY19 (Blood)): 2.8e-09 M
IC50 (OPM-2 (Blood)): 2.6e-08 M
IC50 (OV56 (Ovary)): 7.2e-08 M
IC50 (OVCAR-3 (Ovary)): 7.88e-08 M
IC50 (OVK18 (Ovary)): 4.6e-08 M
IC50 (P31/FUJ (Blood)): 2.25e-08 M
IC50 (PC3 (Prostate)): 4e-08 M
IC50 (PC-9 (Lung)): 1.41e-08 M
IC50 (RERF-LC-Ad2 (Lung)): 1.42e-07 M
IC50 (RKO (Colon)): 2.1e-08 M
IC50 (SCH (Stomach)): 1.52e-08 M
IC50 (SCLC-21H (Lung)): 2.6e-08 M
IC50 (SK-ES-1 (Bone)): 2.7e-09 M
IC50 (SK-MEL-3 (Skin)): 1.55e-07 M
IC50 (SK-N-MC (Brain)): 1.61e-09 M
IC50 (SK-N-SH (Brain)): 1.15e-07 M
IC50 (SK-OV3 (Ovary)): 3.7e-08 M
IC50 (SNU-1 (Stomach)): 2.27e-08 M
IC50 (SNU-216 (Stomach)): 9.2e-08 M
IC50 (SU-DHL-5 (Blood)): 2.55e-09 M
IC50 (SW480 (Colon)): 5.5e-08 M
IC50 (SW-1783 (Brain)): 4.8e-08 M
IC50 (Saos-2 EC (Bone)): 6.6e-08 M
IC50 (T98G (Brain)): 8.1e-08 M
IC50 (T-47D (Breast)): 9.75e-08 M
IC50 (U118MG (Brain)): 1.9e-07 M
IC50 (U251MG (Brain)): 1.18e-07 M
IC50 (U-266 (Blood)): 9.4e-09 M
pIC50 (read-out: antiproliferative IC50 range, range over 140 cell lines): 7.00 to 9.00
Reductive Activation Index (span over ProliFiler-140 cell lines): up to 30 fold

From publication PMC10141580, “Cyclic Dichalcogenides Extend the Reach of Bioreductive Prodrugs to Harness Thiol/Disulfide Oxidoreductases: Applications to seco-Duocarmycins Targeting the Thioredoxin System” (ACS Central Science, 2023)
